Source: PMC7910576, “Marine furanocembranoids-inspired macrocycles enabled by Pd-catalyzed unactivated C(sp^3)-H olefination mediated by donor/donor carbenes” (Nature Communications, 2021)
pIC50: −log10 of the molar value.

Tests used:
TNF-α = assay: LPS-induced TNF-α production in RAW264.7 macrophages (ELISA); format: cell-based; conditions: Mus musculus, LPS 5 μg/mL, 24 h
Method: (§1) RAW264.7 cell, a murine macrophage cell line, was purchased from American Type Culture Collection (ATCC, Manassas, VA, USA). Cells were grown in Dulbecco’s Modified Eagle Media (DMEM) containing 10% fetal bovine serum, 2 mM L-glutamine, 100 U/mL penicillin, and 100 μg/mL streptomycin and were maintained at 37 °C in a humidified incubator of 5% CO2.
(§2) RAW264.7 cells (1 × 10^5/well) were seeded into 96-well plates in triplicate and were treated with DMEM media only or 5 μg/mL of LPS or with indicated concentrations of compounds for 24 h. Supernatants were collected and then quantified with the mouse TNF-α, IL-6, and IL-1β ELISA kits following the manufacturer’s instructions.

IL-6 = assay: LPS-induced IL-6 production in RAW264.7 macrophages (ELISA); format: cell-based, mouse; conditions: for pIC50: Mus musculus, RAW264.7 macrophages, LPS 5 μg/mL, 24 h; for potency of inhibitory activity on IL-6 relative to Dexamethasone: compared with Dexamethasone
Method: as §1, §2

IL-1β = assay: LPS-induced IL-1β production in RAW264.7 macrophages (ELISA); format: cell-based; conditions: Mus musculus, LPS 5 μg/mL, 24 h
Method: as §1, §2

[1] = Cell viability assay (MTT) in RAW264.7 cells; format: cell-based, mouse; conditions: mouse, RAW264.7 macrophage cells; RAW264.7 cells, 24 h, MTT; read-out: Cytotoxicity CC50
Method: as §1
(§3) RAW264.7 cells (1 × 10^5/well) were seeded into 96-well plates in triplicate and were treated with DMEM media or indicated concentrations of compounds for 24 h. MTT solution was added to each well at a final concentration of 0.5 mg/ml and incubated for 4 h before the end of the culture. The quantity of formazan is measured at 570 nm with a microplate reader (Molecular Devices, Sunnyvale, CA, USA) and the cell viability was calculated.

RAW264.7 cells = assay: Cell viability assay (MTT) in RAW264.7 cells; format: cell-based, mouse; conditions: at the indicated concentrations, compared to Dexamethasone
Method: as §1, §3

NF-κB signaling pathway = assay: Western blotting of LPS-induced NF-κB signaling pathway activation in RAW264.7 cells; format: cell-based, mouse; conditions: Western blot
Method: as §1
RAW264.7 cells (6 × 10^5/well) were seeded into 24-well plates and treated with DMEM media only or 5 μg/mL of LPS or with indicated concentrations of compounds for 24 h. Cells were lysed in sodium dodecyl sulfate (SDS) sample buffer containing protease inhibitor cocktail (Roche Life Science, Mannheim, Germany). The resulted proteins were resolved by SDS-polyacrylamide gel electrophoresis and then subjected to the following antibodies: anti-mouse IKK-α, anti-mouse phospho-IKK-α, anti-mouse IκB-α, anti-mouse NF-κB p65, anti-mouse phospho-NF-κB p65 antibodies (Cell Signaling Technology, Beverly, MA), and HRP-conjugated mouse anti-GAPDH (Kangcheng, Shanghai, China). Signals were detected with an HRP-conjugated anti-rabbit IgG (Bio-Rad, Richmond, CA, USA) using an ECL system (Amersham Biosciences, Buckinghamshire, UK). The uncropped and unprocessed scans of indicated blots were supplied as Supplementary Figure 99 in the Supplementary Information.

| SMILES | pIC50 (TNF-α) | pIC50 (IL-6) | pIC50 (IL-1β) | CC50 at 24 h [1] [µM] | potency of inhibitory activity on IL-6 relative to Dexamethasone (IL-6) | cytotoxicity (in words) (RAW264.7 cells) | degradation of IκB-α (NF-κB signaling pathway) | phosphorylation of IKK-α (NF-κB signaling pathway) | phosphorylation of NF-κB (NF-κB signaling pathway) |
| --- | --- | --- | --- | --- | --- | --- | --- | --- | --- |
| Cc1oc2cc1C(=O)NCCCCCCCCCCCC(=O)N[C@@H](Cc1ccccc1)C(=O)Nc1ccc(cc1)C(C)(C)/C=C\2C(C)(C)C [6a] | < 3.60 | 4.27 | 4.89 | 152 |  |  |  |  |  |
| Cc1oc2cc1C(=O)NCCCCCCCCCCCC(=O)N[C@@H](C)C(=O)Nc1ccc(cc1)C(C)(C)/C=C\2C(C)(C)C [6b] | 5.67 | 5.14 | 5.47 | 39.7 |  |  |  |  |  |
| Cc1oc2cc1C(=O)NCCCCCCCCCCCC(=O)N[C@@H](C(C)C)C(=O)Nc1ccc(cc1)C(C)(C)/C=C\2C(C)(C)C [6c] | 4.94 | 4.98 | 5.36 | 154 |  |  |  |  |  |
| Cc1oc2cc1C(=O)NCCCCCCCCCCCC(=O)N1CCC[C@H]1C(=O)Nc1ccc(cc1)C(C)(C)/C=C\2C(C)(C)C [6d] | 3.97 | 3.71 | 4.76 | 27.7 |  |  |  |  |  |
| Cc1oc2cc1C(=O)NCCCCCCCCCCCC(=O)N[C@@H](C(C)C)C(=O)N[C@@H](Cc1ccccc1)C(=O)Nc1ccc(cc1)C(C)(C)/C=C\2C(C)(C)C [6e] | < 3.60 | 4.09 | 5.52 | > 250 |  |  |  |  |  |
| CSCC[C@@H]1NC(=O)CCCCCCCCCCCNC(=O)c2cc(oc2C)/C(C(C)(C)C)=C\C(C)(C)c2ccc(cc2)NC(=O)[C@H](Cc2ccccc2)NC1=O [6f] | 5.00 | 4.53 | 5.06 | 214 |  |  |  |  |  |
| Cc1oc2cc1C(=O)NCCCCCCCCCCCC(=O)Nc1ccc(cc1)C(C)(C)/C=C\2C(C)(C)C [6g] | 6.35 | 5.80 | 6.23 | > 250 | approximately ten times more potent | did not show obvious cytotoxicity | abrogate | abrogate | suppressed by 6g in a concentration-dependent manner |
| Cc1oc2cc1C(=O)N[C@@H](C(C)C)C(=O)NCCCCCCCCCCCC(=O)Nc1ccc(cc1)C(C)(C)/C=C\2C(C)(C)C [6h] | 4.25 | 6.02 | 8.39 | 56.4 | approximately ten times more potent | did not show obvious cytotoxicity |  |  |  |
